{"source": "paper PMC9760738", "about": "“Pharmacokinetics, absorption, distribution, metabolism and excretion of the MEK inhibitor zapnometinib in rats” (Frontiers in Pharmacology, 2022)", "key": {"[1]": {"experiment": "Plasma total radioactivity pharmacokinetics after single oral 30 mg/kg [14C]-zapnometinib, Sprague-Dawley rats (Group 1)", "assay_type": "in vivo, rat", "description": "(§1) Oral doses of [^14C]-zapnometinib were administered as a suspension in 5% DMSO (v/v), 30% PEG 400 (v/v) and 7.5% (w/v) Captisol in water at a dose level of 30 mg/kg to male and female rats by gastric intubation at a dose volume of 4 ml/kg body weight. The selected dose level (30 mg/kg) was below the no observed adverse effect level (100 mg/kg), the formulation was selected based on data obtained in other nonclinical studies. The radioactive dose administered to each animal was quantified from the weight (excretion studies only) or volume of dosing formulation given, and its mean measured radioactivity concentration. The weight of test compound administered to each rat was determined from the radioactive dose administered and the specific activity of the test material.\nAfter single oral doses of [^14C]-zapnometinib to three male and three female rats, a blood sample (ca 220 µL) was taken from each animal, via the jugular or tail vein at each of the following time points: 0.25, 0.5, 1, 2, 4, 8, 24, 48, 72, 96, 120 and 168 h after dose administration. All blood samples were delivered into K2EDTA tubes and centrifuged (ca 2000 ×g at 4°C for 10 min) to obtain plasma; blood cells were discarded. After collection of the terminal sample, rats were killed by cervical dislocation and the carcasses discarded.\n(§2) Radioactivity was measured by liquid scintillation analysis using Wallac® 1409 automatic liquid scintillation counters. Samples were prepared according to the company’s SOP (see Supplementary Methods). Briefly, replicate weighed samples were mixed with Ultima Gold™ scintillation cocktail (PerkinElmer, United States) for the measurement of radioactivity. Radioactivity in amounts less than twice that of the background concentration in the sample under investigation was below the limit of accurate quantification (BLQ).\nWeight, volume, and radioactivity concentration (liquid scintillation analysis) results relating to the analysis of biological samples generated during this study were acquired and processed using DEBRA, a Laboratory Information Management System (v 5.5.4). Pharmacokinetic parameters were calculated using the computer program Phoenix™ WinNonlin version 8.3 (Pharsight Corporation, United States). Areas under the mean plasma radioactivity concentration-time curves up to the time of the last quantifiable sample (AUC0-t) were estimated by the linear trapezoidal rule. Areas under the mean plasma radioactivity concentration-time curves to infinite time (AUC0-inf) were calculated using the expression: AUC0-inf = AUC0-t + Ct/λz, where Ct is the last measurable concentration and λz is the elimination rate constant estimated using log-linear regression during the terminal elimination phase. Statistical evaluation was limited to basic expressions of variation such as means and standard deviation."}, "[2]": {"experiment": "Excretion balance of radioactivity after single oral 30 mg/kg [14C]-zapnometinib, Sprague-Dawley rats (Group 2)", "assay_type": "in vivo, rat", "conditions": "for Total recovery: 0-168 h; for Carcass: 168 h", "description": "as §1\nTotal excreta from three male and three female rats were collected after single oral doses of [^14C]-zapnometinib. Urine was collected into containers cooled in solid CO2 and feces were collected separately at ambient temperature. Expired air was trapped in 1M potassium hydroxide solution. After completion of the final excreta collection, rats were killed by cervical dislocation following sedation, and the carcasses retained for analysis.\nas §2, with “(BLQ). […]” for “(BLQ).”\nFor Liquid scintillation analyses, carcasses from rats (Group 2) were solubilized by digestion at ca 55 °C overnight in a solution prepared from sodium hydroxide (80 g) and Triton X-405 (100 mL) in purified water (600 mL) and methanol (300 mL). After measurement of total sample weight (as appropriate), replicate portions of diluted dose solutions (ca 0.1 mL), plasma (ca 0.05 – 0.25 mL), urine (ca 0.05 – 0.25 mL), expired air trap solution (ca 1 mL) and cage wash (ca 1 mL) were mixed directly with Ultima Gold scintillation cocktail (5 mL; 15 mL for air traps) for measurement of radioactivity concentrations. Similarly, replicate weighed portions of digested carcass solutions (ca 1 mL plus 1 mL purified water) were mixed with Ultima Gold (10 mL) scintillation cocktail for measurement of radioactivity concentrations. Feces were weighed, then homogenized to a smooth paste after the addition of an appropriate volume (approximately 1.5 volumes) of purified water and the weight of each homogenate was recorded. Replicate weighed portions of feces (ca 0.2 g) and blood cells (ca. 0.25 g) were placed on Combustocones, which were then capped with cellulose pads and burned in oxygen using […]"}, "[3]": {"experiment": "Plasma protein binding assay, dog plasma", "assay_type": "in vitro ADME", "conditions": "data not shown"}, "[4]": {"conditions": "from other nonclinical studies; cited from earlier work"}, "[5]": {"conditions": "individual males 7M, 8M, 9M, rows in order of periods 0-24, 0-48, 0-72, 0-96, 0-120, 0-144, 0-168 h"}}, "note": "“And” between values parts separate entries of the source, which are not always exact repeats. Identical values can stand only once.", "data": [{"smiles": "O=C(O)c1ccc(F)c(F)c1Nc1ccc(I)cc1Cl", "note": "[zapnometinib, 2-(2-Chloro-4-iodophenylamino)-3,4-difluorobenzoic acid]", "values": [{"measurement": "Mean plasma radioactivity concentration", "setting": "[1]; 48 h post dose, females", "value": 0.650, "unit": "μg equivs/ml"}, {"measurement": "Mean plasma radioactivity concentration", "setting": "[1]; 48 h post dose, males", "value": 0.724, "unit": "μg equivs/ml"}, {"measurement": "Mean plasma radioactivity concentration", "setting": "[1]; 168 h post dose, females", "value": 0.049, "unit": "μg equivs/ml"}, {"measurement": "Mean plasma radioactivity concentration", "setting": "[1]; 168 h post dose, males", "value": 0.054, "unit": "μg equivs/ml"}, {"measurement": "Plasma radioactivity at 168 h as % of Cmax", "setting": "[1]; females", "value": "~0.04", "unit": "%"}, {"measurement": "Plasma radioactivity at 168 h as % of Cmax", "setting": "[1]; males", "value": "~0.06", "unit": "%"}, {"measurement": "AUC0-t females versus males", "setting": "[1]; total plasma radioactivity", "value": 1.4, "unit": "fold"}, {"measurement": "Cmax females versus males", "setting": "[1]; total plasma radioactivity", "value": 1.5, "unit": "fold"}, {"measurement": "Cumulative excretion, urine", "setting": "[2]; 0-6 h, male, mean", "value": 0.23, "unit": "% administered dose"}, {"measurement": "Cumulative excretion, faeces", "setting": "[2]; 0-24 h, male, mean", "value": 79.34, "unit": "% administered dose"}, {"measurement": "Cumulative excretion, urine", "setting": "[2]; 0-24 h, male, mean", "value": 2.20, "unit": "% administered dose"}, {"measurement": "Cumulative, cage wash", "setting": "[2]; 0-24 h, male, mean", "value": 0.14, "unit": "% administered dose"}, {"measurement": "Cumulative, expired air", "setting": "[2]; 0-24 h, male, mean", "value": 0.02, "unit": "% administered dose"}, {"measurement": "Cumulative excretion, faeces", "setting": "[2]; 0-48 h, male, mean", "value": 89.32, "unit": "% administered dose"}, {"measurement": "Cumulative excretion, urine", "setting": "[2]; 0-48 h, male, mean", "value": 2.68, "unit": "% administered dose"}, {"measurement": "Cumulative, cage wash", "setting": "[2]; 0-48 h, male, mean", "value": 0.18, "unit": "% administered dose"}, {"measurement": "Cumulative, expired air", "setting": "[2]; 0-48 h, male, mean", "value": 0.02, "unit": "% administered dose"}, {"measurement": "Cumulative excretion, faeces", "setting": "[2]; 0-72 h, male, mean", "value": 90.12, "unit": "% administered dose"}, {"measurement": "Cumulative excretion, urine", "setting": "[2]; 0-72 h, male, mean", "value": 2.77, "unit": "% administered dose"}, {"measurement": "Cumulative, cage wash", "setting": "[2]; 0-72 h, male, mean", "value": 0.19, "unit": "% administered dose"}, {"measurement": "Cumulative, expired air", "setting": "[2]; 0-72 h, male, mean", "value": 0.02, "unit": "% administered dose"}, {"measurement": "Cumulative excretion, faeces", "setting": "[2]; 0-96 h, male, mean", "value": 90.28, "unit": "% administered dose"}, {"measurement": "Cumulative excretion, urine", "setting": "[2]; 0-96 h, male, mean", "value": 2.80, "unit": "% administered dose"}, {"measurement": "Cumulative, cage wash", "setting": "[2]; 0-96 h, male, mean", "value": 0.21, "unit": "% administered dose"}, {"measurement": "Cumulative excretion, faeces", "setting": "[2]; 0-120 h, male, mean", "value": 90.34, "unit": "% administered dose"}, {"measurement": "Cumulative excretion, urine", "setting": "[2]; 0-120 h, male, mean", "value": 2.82, "unit": "% administered dose"}, {"measurement": "Cumulative, cage wash", "setting": "[2]; 0-120 h, male, mean", "value": 0.21, "unit": "% administered dose"}, {"measurement": "Cumulative excretion, faeces", "setting": "[2]; 0-144 h, male, mean", "value": 90.37, "unit": "% administered dose"}, {"measurement": "Cumulative excretion, urine", "setting": "[2]; 0-144 h, male, mean", "value": 2.83, "unit": "% administered dose"}, {"measurement": "Cumulative, cage wash", "setting": "[2]; 0-144 h, male, mean", "value": 0.21, "unit": "% administered dose"}, {"measurement": "Total recovery", "setting": "[2]; female, mean", "value": 98.26, "unit": "% Administered dose"}, {"measurement": "Total recovery", "setting": "[2]; male, mean", "value": 93.72, "unit": "% Administered dose"}, {"measurement": "Carcass", "setting": "[2]; female, mean", "value": 0.19, "unit": "% Administered dose"}, {"measurement": "Carcass", "setting": "[2]; male, mean", "value": 0.20, "unit": "% Administered dose"}, {"measurement": "Radioactivity in carcasses", "setting": "[2]; 168 h post dose, both sexes", "value": "~0.2", "unit": "%"}, {"measurement": "Cumulative, expired air", "setting": "[2]; individual males 7M, 8M, 9M, periods 0-24, 0-48, 0-72 h", "value": 0.02, "unit": "% administered dose"}, {"measurement": "Cumulative excretion, urine", "setting": "[2]; individual males 7M, 8M, 9M, rows in order of periods 0-6, 0-24, 0-48, 0-72, 0-96, 0-120, 0-144, 0-168 h", "value": "0.23 % administered dose and 0.16 % administered dose and 0.30 % administered dose and 2.69 % administered dose and 1.99 % administered dose and 1.92 % administered dose and 3.13 % administered dose and 2.48 % administered dose and 2.43 % administered dose and 3.20 % administered dose and 2.55 % administered dose and 2.56 % administered dose and 3.22 % administered dose and 2.58 % administered dose and 2.61 % administered dose and 3.23 % administered dose and 2.59 % administered dose and 2.63 % administered dose and 3.24 % administered dose (2×) and 2.60 % administered dose (2×) and 2.64 % administered dose and 2.65 % administered dose"}, {"measurement": "Cumulative excretion, faeces", "setting": "[2]; [5]", "value": "81.33 % administered dose and 77.94 % administered dose and 78.75 % administered dose and 90.61 % administered dose and 88.87 % administered dose and 88.48 % administered dose and 91.30 % administered dose and 89.52 % administered dose and 89.53 % administered dose and 91.37 % administered dose and 89.65 % administered dose and 89.82 % administered dose and 91.41 % administered dose and 89.69 % administered dose and 89.92 % administered dose and 91.44 % administered dose and 89.72 % administered dose and 89.96 % administered dose and 91.46 % administered dose and 89.89 % administered dose and 89.99 % administered dose"}, {"measurement": "Cumulative, cage wash", "setting": "[2]; [5]", "value": "0.14 % administered dose (2×) and 0.16 % administered dose (4×) and 0.11 % administered dose and 0.22 % administered dose and 0.19 % administered dose and 0.23 % administered dose (5×) and 0.20 % administered dose and 0.15 % administered dose and 0.24 % administered dose (3×) and 0.26 % administered dose and 0.17 % administered dose"}, {"measurement": "Protein binding", "setting": "[3]", "value": "high protein binding"}, {"measurement": "Unbound fraction", "setting": "[3]", "value": "very low"}, {"measurement": "No observed adverse effect level", "setting": "[4]", "value": 100, "unit": "mg/kg"}]}]}
